Reference: ChEMBL document CHEMBL1201862, “PubChem BioAssay data set” (2004)
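96-well plates; 48 h exposure; 5 concentrations. Endpoints by linear interpolation between flanking doses. Not reached: highest tested concentration assigned. Here, GI50 denotes the concentration required for 50% inhibition of growth.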 Activity calls are given as the source filed them. Cut-off read from the data, not from the text of the source: active = GI50 up to about 1.1 µM and inactive = higher.

How the values were obtained:
Test in all cases: DTP human tumour cell line panel, 48 h
[1] = test system: NCI-H226
[2] = test system: HCC 2998
[3] = test system: A498
[4] = test system: M14
[5] = test system: Malme-3M
[6] = test system: SK-MEL-2
[7] = test system: SNB-75
[8] = test system: SNB-78
[9] = test system: UACC-62
[10] = test system: EKVX
[11] = test system: HOP-92
[12] = test system: SF-295
[13] = test system: UACC-257
[14] = test system: HOP-62
[15] = test system: OVCAR-5
[16] = test system: MDA-MB-231
[17] = test system: PC-3
[18] = test system: BT-549
[19] = test system: Hs-578T
[20] = test system: T47D

Row | Structure (SMILES) | GI50 [1] | GI50 [2] | GI50 [3] | GI50 [4] | GI50 [5] | GI50 [6] | GI50 [7] | GI50 [8] | GI50 [9] | GI50 [10] | GI50 [11] | GI50 [12] | GI50 [13] | GI50 [14] | GI50 [15] | GI50 [16] | GI50 [17] | GI50 [18] | GI50 [19] | GI50 [20]
1 | N=c1oc2c(O)c(O)ccc2cc1C(N)=O | > 100 µM (inactive) | > 100 µM (inactive) | > 100 µM (inactive) | 43 µM (inactive) | 84.3 µM (inactive) | 48.2 µM (inactive) | 30.2 µM (inactive) | > 100 µM (inactive) | 35.1 µM (inactive) | 47.2 µM (inactive) | > 100 µM (inactive) | 33.6 µM (inactive) | 32.1 µM (inactive) | > 100 µM (inactive) | > 100 µM (inactive) | – | – | – | – | –
2 | CN1C(=O)c2cccc3c([N+](=O)[O-])ccc(c23)C1=O | 1.56 µM (inactive) | 6 µM (inactive) | 2.65 µM (inactive) | 11.1 µM (inactive) | 16.2 µM (inactive) | 10.8 µM (inactive) | 12.3 µM (inactive) | 14 µM (inactive) | 1.77 µM (inactive) | 13.7 µM (inactive) | 6.52 µM (inactive) | 14.5 µM (inactive) | 9.53 µM (inactive) | 12.1 µM (inactive) | 3.5 µM (inactive) | – | – | – | – | –
3 | C#CCSc1nc(N)c2ncn(C3OC(COP(=O)(O)O)C(O)C3O)c2n1 (stereo not given) | > 239 µM (inactive) | > 239 µM (inactive) | > 239 µM (inactive) | > 239 µM (inactive) | > 239 µM (inactive) | > 239 µM (inactive) | > 239 µM (inactive) | > 239 µM (inactive) | > 239 µM (inactive) | > 239 µM (inactive) | > 239 µM (inactive) | > 239 µM (inactive) | > 239 µM (inactive) | > 239 µM (inactive) | > 239 µM (inactive) | – | – | – | – | –
4 | C=C(CN(C)C)C(=O)c1ccc(C)cc1C | 15.5 µM (inactive) | 17.1 µM (inactive) | 17.2 µM (inactive) | 5.93 µM (inactive) | 5.7 µM (inactive) | 18 µM (inactive) | 16.5 µM (inactive) | 22.9 µM (inactive) | 10.5 µM (inactive) | 12.9 µM (inactive) | 3.74 µM (inactive) | 16.3 µM (inactive) | 9.51 µM (inactive) | 32.2 µM (inactive) | 14.1 µM (inactive) | 13.3 µM (inactive) | 14.1 µM (inactive) | 3.59 µM (inactive) | 26.1 µM (inactive) | 3.31 µM (inactive)
5 | Cc1cc(C)nc(NS(=O)(=O)c2ccc(Nc3c4ccccc4nc4c(C(=O)N5CCN(CCO)CC5)cccc34)cc2)n1 | > 100 µM (inactive) | > 100 µM (inactive) | > 100 µM (inactive) | > 100 µM (inactive) | > 100 µM (inactive) | > 100 µM (inactive) | 95.7 µM (inactive) | > 100 µM (inactive) | > 100 µM (inactive) | > 100 µM (inactive) | > 100 µM (inactive) | > 100 µM (inactive) | > 100 µM (inactive) | > 100 µM (inactive) | > 100 µM (inactive) | – | – | – | – | –
6 | C/C(=N\NC(=S)N1CCCCCC1)c1ccccn1 | 0.565 µM (active) | 0.158 µM (active) | 0.697 µM (active) | 0.0266 µM (active) | 0.0316 µM (active) | 0.132 µM (active) | 0.0692 µM (active) | 0.741 µM (active) | 0.00881 µM (active) | 0.0641 µM (active) | 0.01 µM (active) | < 0.0187 µM (active) | 0.0128 µM (active) | 0.075 µM (active) | 0.897 µM (active) | 0.0249 µM (active) | 0.011 µM (active) | 0.17 µM (active) | 0.322 µM (active) | 0.00438 µM (active)
